From publication PMC6783499, “Heteroglycoclusters With Dual Nanomolar Affinities for the Lectins LecA and LecB From Pseudomonas aeruginosa” (Frontiers in Chemistry, 2019)

Key:
LecA = biological target: T1, LecA (Pseudomonas aeruginosa, UniProt Q05097); assay: biochemical; assay type: binding
T1 construct: made in house; host or cells: Escherichia coli BL21(DE3)
Method: (§1) The resulting hGCs were tested in solution with lectins by Isothermal Titration Calorimetry (Table 1) and their binding properties were compared with homoclusters 15–20 (Berthet et al., [2013]; Thomas et al., [2015b]) displaying either 4 and 16 βGal or αFuc units attached with an oxime or a triazole linker (Figure 3). […] Experiments were performed in direct injection mode (i.e., ligand in syringe and protein in cell) to minimize aggregation problems.
(§2) All chemical reagents were purchased from Aldrich (Saint Quentin Fallavier, France) or Acros (Noisy-Le-Grand, France). All protected amino acids and Fmoc-Gly-Sasrin® resin was obtained from Advanced ChemTech Europe (Brussels, Belgium). For peptides and glycopeptides, analytical RP-HPLC was performed on Waters system equipped with a Waters 2695 separations module and a Waters 2487 Dual Absorbance UV/Visible Detector. Analysis was carried out at 1.0 mL/min (EC 125/3 nucleosil 300-5 C18) with UV monitoring at 214 nm and 250 nm using a linear A–B gradient (buffer A: 0.09% CF3CO2H in water; buffer B: 0.09% CF3CO2H in 90% acetonitrile). Purifications were carried out at 22.0 mL/min (VP 250/21 nucleosil 100-7 C18) with UV monitoring at 214 nm and 250 nm using a linear A–B gradient. HRMS and ESI-MS and HRMS spectra of peptides and glycopeptides were measured on an Esquire 3000 spectrometer from Bruker. Lectins LecA and LecB were produced in recombinant form in Escherichia coli BL21(DE3) as described previously (Mitchell et al., [2005]; Blanchard et al., [2008]).
Other compounds were assayed with a VP-ITC isothermal titration calorimeter (Microcal). The experiments were carried out at 25°C. All glycocompounds and lectins LecB and LecA were dissolved in the same buffer composed of 20 mM Tris with 100 mM NaCl and 0.1 mM CaCl2 at pH 7.5. For PEAQ-ITC, the lectins were placed in the microcalorimeter cell (200 μL) at concentrations varying from 35 to 70 μM. […] For VP-ITC, the microcalorimeter cell (1.447 mL) contained the lectins with concentrations between 30 and 100 μM. […] The experimental data were fitted to a theoretical titration curve using the Microcal PEAQ-ITC analysis software, with ΔH (enthalpy change), Ka (association constant), and N (number of binding sites per monomer) as adjustable parameters. Dissociation constant (Kd), free energy change (ΔG), and entropy contributions (TΔS) were derived from the previous ones. Two or three independent titrations were performed for each ligand tested.

LecB = biological target: T2, LecB (Pseudomonas aeruginosa, UniProt Q9HYN5); assay: biochemical; assay type: binding
T2 construct: made in house; host or cells: Escherichia coli BL21(DE3)
T2 sequence (Q9HYN5 entry or part of it): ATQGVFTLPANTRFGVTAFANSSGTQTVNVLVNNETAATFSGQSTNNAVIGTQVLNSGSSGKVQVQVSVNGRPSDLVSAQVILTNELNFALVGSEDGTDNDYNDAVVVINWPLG
Method: as §1, §2
Other compounds were assayed with a VP-ITC isothermal titration calorimeter (Microcal). The experiments were carried out at 25°C. All glycocompounds and lectins LecB and LecA were dissolved in the same buffer composed of 20 mM Tris with 100 mM NaCl and 0.1 mM CaCl2 at pH 7.5. For PEAQ-ITC, the lectins were placed in the microcalorimeter cell (200 μL) at concentrations varying from 35 to 70 μM. […] For VP-ITC, the microcalorimeter cell (1.447 mL) contained the lectins with concentrations between 30 and 100 μM. A total of 30 injections of 10 μL were performed intervals of 5 min while stirring at 310 rpm with glycoclusters concentrations varying from […]. The experimental data were fitted to a theoretical titration curve using the Microcal PEAQ-ITC analysis software, with ΔH (enthalpy change), Ka (association constant), and N (number of binding sites per monomer) as adjustable parameters. Dissociation constant (Kd), free energy change (ΔG), and entropy contributions (TΔS) were derived from the previous ones. Two or three independent titrations were performed for each ligand tested.

[1] = LecA, ITC, 25°C, per mole of glycocluster
[2] = ITC, 25°C, per mole of glycocluster

T1 sequence (Q05097 whole entry): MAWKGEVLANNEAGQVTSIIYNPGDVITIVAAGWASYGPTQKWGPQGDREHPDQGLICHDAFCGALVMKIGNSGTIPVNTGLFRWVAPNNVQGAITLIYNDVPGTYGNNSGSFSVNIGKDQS

SMILES: C[C@@H]1NC(=O)[C@H](CCCCNC(=O)/C=N/O[C@@H]2O[C@H](CO)[C@H](O)[C@H](O)[C@H]2O)NC(=O)CNC(=O)[C@@H]2CCCN2C(=O)[C@H](CCCCNC(=O)/C=N/O[C@@H]2O[C@H](CO)[C@H](O)[C@H](O)[C@H]2O)NC(=O)[C@H](CCCCNC(=O)CO/N=C/C(=O)NCCCC[C@@H]2NC(=O)CNC(=O)[C@@H]3CCCN3C(=O)[C@H](CCCCNC(=O)/C=N/OCC(=O)NCCCC[C@@H]3NC(=O)[C@H](CCCCNC(=O)/C=N/O[C@@H]4O[C@H](CO)[C@H](O)[C@H](O)[C@H]4O)NC(=O)CNC(=O)[C@@H]4CCCN4C(=O)[C@H](CCCCNC(=O)/C=N/O[C@@H]4O[C@H](CO)[C@H](O)[C@H](O)[C@H]4O)NC(=O)[C@H](C)NC(=O)[C@H](CCCCNC(=O)/C=N/O[C@@H]4O[C@H](CO)[C@H](O)[C@H](O)[C@H]4O)NC(=O)CNC(=O)[C@@H]4CCCN4C(=O)[C@H](CCCCNC(=O)/C=N/O[C@@H]4O[C@H](CO)[C@H](O)[C@H](O)[C@H]4O)NC3=O)NC(=O)[C@H](CCCCN)NC(=O)[C@H](CCCCNC(=O)CO/N=C/C(=O)NCCCC[C@@H]3NC(=O)[C@H](CCCCn4cc(CO[C@@H]5O[C@@H](C)[C@@H](O)[C@@H](O)[C@@H]5O)nn4)NC(=O)CNC(=O)[C@@H]4CCCN4C(=O)[C@H](CCCCn4cc(CO[C@@H]5O[C@@H](C)[C@@H](O)[C@@H](O)[C@@H]5O)nn4)NC(=O)[C@H](C)NC(=O)[C@H](CCCCn4cc(CO[C@@H]5O[C@@H](C)[C@@H](O)[C@@H](O)[C@@H]5O)nn4)NC(=O)CNC(=O)[C@@H]4CCCN4C(=O)[C@H](CCCCn4cc(CO[C@@H]5O[C@@H](C)[C@@H](O)[C@@H](O)[C@@H]5O)nn4)NC3=O)NC(=O)CNC(=O)[C@@H]3CCCN3C(=O)[C@H](CCCCNC(=O)CO/N=C/C(=O)NCCCC[C@@H]3NC(=O)[C@H](CCCCn4cc(CO[C@@H]5O[C@@H](C)[C@@H](O)[C@@H](O)[C@@H]5O)nn4)NC(=O)CNC(=O)[C@@H]4CCCN4C(=O)[C@H](CCCCn4cc(CO[C@@H]5O[C@@H](C)[C@@H](O)[C@@H](O)[C@@H]5O)nn4)NC(=O)[C@H](C)NC(=O)[C@H](CCCCn4cc(CO[C@@H]5O[C@@H](C)[C@@H](O)[C@@H](O)[C@@H]5O)nn4)NC(=O)CNC(=O)[C@@H]4CCCN4C(=O)[C@H](CCCCn4cc(CO[C@@H]5O[C@@H](C)[C@@H](O)[C@@H](O)[C@@H]5O)nn4)NC3=O)NC(=O)[C@H](C)NC2=O)NC(=O)[C@H](CCCCNC(=O)/C=N/O[C@@H]2O[C@H](CO)[C@H](O)[C@H](O)[C@H]2O)NC(=O)CNC(=O)[C@@H]2CCCN2C(=O)[C@H](CCCCNC(=O)/C=N/O[C@@H]2O[C@H](CO)[C@H](O)[C@H](O)[C@H]2O)NC1=O [Compound 13]
- Kd (LecA): 35 ± 0.1 nM
- –ΔH (binding enthalpy) (LecA; LecA, ITC): 51.6 to 58.1 kcal/mol
- n (stoichiometry, glycocluster molecules per lectin monomer) (LecA; LecA, ITC, 25°C, pH 7.5): 0.16
- –ΔG (LecA; [1]): 10.2 kcal/mol
- –ΔH (LecA; [1]): 51.6 ± 0.72 kcal/mol
- −TΔS (LecA; [1]): 41.49 kcal/mol
- binding to LecA in words (LecA; LecA, abstract): maintain their binding potency
- α (relative potency compared to the monovalent compound) (LecA; LecA, relative to βGal-OMe): 4,286
- β (relative potency per sugar unit) (LecA; LecA, relative to βGal-OMe): 536
- n (stoichiometry, glycocluster molecules per lectin monomer) (LecB; ITC, 25°C, pH 7.5): 0.10
- –ΔG (LecB; [2]): 9.44 kcal/mol
- –ΔH (LecB; [2]): 43.71 ± 1.9 kcal/mol
- −TΔS (LecB; [2]): 34.25 kcal/mol
- Kd (LecB; Kd, ITC, 25°C, 20 mM Tris, 100 mM NaCl, 0.1 mM CaCl2, pH 7.5, ligand in syringe): 118 ± 15 nM
- binding to LecB in words (LecB; abstract): maintain their binding potency
- α (relative potency compared to the monovalent compound) (LecB; relative to αFuc-OMe): 3.6
- β (relative potency per sugar unit) (LecB; relative to αFuc-OMe): 0.5
